Our source for the EC50 values is patent US7304039B2, “Glucose-based compounds with affinity to P-selectin” (Astellas Pharma Europe B.V., priority 2002, dated 2007).

The experiment concerns the target T1, human P-selectin (Homo sapiens, UniProt P16109).
T1 sequence (P16109 42-771): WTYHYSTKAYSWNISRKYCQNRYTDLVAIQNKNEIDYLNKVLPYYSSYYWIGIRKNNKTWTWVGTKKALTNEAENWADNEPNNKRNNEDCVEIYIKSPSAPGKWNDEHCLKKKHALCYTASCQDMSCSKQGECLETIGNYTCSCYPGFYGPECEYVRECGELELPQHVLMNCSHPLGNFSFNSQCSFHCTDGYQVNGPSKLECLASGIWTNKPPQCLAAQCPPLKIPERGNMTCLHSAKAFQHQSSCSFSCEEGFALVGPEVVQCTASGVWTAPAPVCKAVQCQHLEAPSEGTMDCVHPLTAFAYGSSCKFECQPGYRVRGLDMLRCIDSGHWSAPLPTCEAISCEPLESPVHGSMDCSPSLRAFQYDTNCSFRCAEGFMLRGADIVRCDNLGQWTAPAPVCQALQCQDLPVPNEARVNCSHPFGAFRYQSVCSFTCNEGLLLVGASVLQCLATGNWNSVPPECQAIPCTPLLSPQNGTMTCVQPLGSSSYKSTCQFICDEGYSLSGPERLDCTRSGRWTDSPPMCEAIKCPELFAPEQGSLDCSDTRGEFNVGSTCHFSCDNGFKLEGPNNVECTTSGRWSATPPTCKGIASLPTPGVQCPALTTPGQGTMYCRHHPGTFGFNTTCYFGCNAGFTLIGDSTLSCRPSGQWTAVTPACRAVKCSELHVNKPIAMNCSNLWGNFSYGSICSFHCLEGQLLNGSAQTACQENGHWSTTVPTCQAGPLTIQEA
Description: inhibition assay of SO3-sLea-PAA-biotin binding to immobilized P-selectin. The following applies: inhibition of HSO3-Lea-PAA-biotin (0.33 μg/ml) binding to immobilized human P-selectin/IgG-Fc, 2 hours at 37° C. The method, then:
The activity of compound 3 was evaluated in an inhibition assay of SO3-sLe^a-PAA-biotin binding to immobilized P-selectin as described in the literature (G. Weitz-Schmedt et al., Anal. Biochem. 238, 184-190, 1996) and compared to that of its mannosyl analogue (reference compound 2). A 96 microtiter plate (High binding flat bottom, Costar, Corning, U.S.A.) was coated overnight at 4° C. with 10 μg/ml goat anti-human IgG in coating buffer (50 mM NaHCO3, pH 9.6). Subsequently, wells were washed with assay buffer (20 mM HEPES, 150 mM NaCl, 1 mM CaCl2, pH 7.4) and incubated for 1 hour at 37° C. with blocking buffer (3% BSA in assay buffer). After washing with assay buffer, the wells were incubated for 2 hours at 37° C. with human P-selectin/IgG-Fc (0.3 μg/ml) or CD4/IgG-Fc (as negative control). Subsequently, wells were washed three times with assay buffer and incubated for 2 hours at 37° C. in binding buffer (0.1% BSA, 0.05% Tween 20 in assay buffer) with 0.33 μg/ml HSO3-Le^a-PAA-biotin and the compound. The wells were washed six times with binding buffer and 3,3′,5,5′-tetramethylbenzine (TMB)/H2O2 was added and incubated at room temperature for 15 minutes. The reaction was halted by addition of 2M H2SO4 and the absorbance was measured at 450 nm.
The binding of compounds 6d, 6f, and 6i to P-selectin was evaluated using the same inhibition assay as described in example 2.
Usually EC50 stands for the concentration that produces a half-maximal response. A lower EC50 goes with a more potent agent. Take `O=C(COP(=O)(O)O)C(O)C(O)COC1OC(CO)C(O)C(O)C1O` (centres unmarked) [Compound 3]: the midpoint of the response, the EC50, lay at 2 mM.

Turning to `CCCCCCCC(=O)NC1C(OCC(O)C(O)C(=O)COP(=O)(O)O)OC(CO)C(O)C1O` (centres unmarked) [Compound 6c], the concentration for a half-maximal effect (EC50) came to 4.5 mM.

Regarding `O=C(NC1C(OCC(O)C(O)C(=O)COP(=O)(O)O)OC(CO)C(O)C1O)OCC(Cl)(Cl)Cl` (centres unmarked) [Compound 6d], the concentration giving a half-maximal response (EC50) is 3.7 mM.

Compound `O=C(NC1C(OCC(O)C(O)C(=O)COP(=O)(O)O)OC(CO)C(O)C1O)c1ccccc1` (centres unmarked) [Compound 6f] showed a concentration for a half-maximal effect (EC50) of 0.9 mM.

The compound `O=C(COP(=O)(O)O)C(O)C(O)COC1OC(CO)C(O)C(O)C1O` (centres unmarked) [Reference compound 2, reference compound] yielded a concentration giving a half-maximal response (EC50) of 8.2 mM. Compared with the last compound, the EC50 is about 9.1-fold higher.
